Assay results published in ChEMBL document CHEMBL1201862, “PubChem BioAssay data set” (2004).
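Cultured in 96-well plates, cells were exposed to test compound for 48 hours across five concentrations. The concentration for 50% growth inhibition is given as GI50.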 Calls of active or inactive are those of the source. No stated cut-off is given here; in the data, active = GI50 up to about 1.1 µM and inactive = higher.

Columns and labels:
Assay in all cases: NCI tumour cell line growth inhibition, 48 h
HCC 2998 = test system: HCC 2998
COLO 205 = test system: COLO 205
HL-60 = test system: HL-60
MDA-N = test system: MDA-N
NCI/ADR-RES = test system: NCI/ADR-RES
MDA-MB-435 = test system: MDA-MB-435
PC-3 = test system: PC-3
NCI-H226 = test system: NCI-H226
A498 = test system: A498
RXF 393 = test system: RXF 393
SF-539 = test system: SF-539
UO-31 = test system: UO-31
HOP-62 = test system: HOP-62
SK-MEL-28 = test system: SK-MEL-28
SR = test system: SR
NCI-H460 = test system: NCI-H460
KM12 = test system: KM12
Hs-578T = test system: Hs-578T
OVCAR-3 = test system: OVCAR-3
CAKI-1 = test system: CAKI-1

SMILES	GI50 (HCC 2998)	GI50 (COLO 205)	GI50 (HL-60)	GI50 (MDA-N)	GI50 (NCI/ADR-RES)	GI50 (MDA-MB-435)	GI50 (PC-3)	GI50 (NCI-H226)	GI50 (A498)	GI50 (RXF 393)	GI50 (SF-539)	GI50 (UO-31)	GI50 (HOP-62)	GI50 (SK-MEL-28)	GI50 (SR)	GI50 (NCI-H460)	GI50 (KM12)	GI50 (Hs-578T)	GI50 (OVCAR-3)	GI50 (CAKI-1)
COC(=O)C1=C(C=O)C2C=CC1C2 (stereo not given)	> 89.1 µM (inactive)	46.3 µM (inactive)	21.3 µM (inactive)	> 100 µM (inactive)	> 100 µM (inactive)	> 100 µM (inactive)	> 100 µM (inactive)	> 100 µM (inactive)	> 100 µM (inactive)	81.5 µM (inactive)	> 100 µM (inactive)	> 100 µM (inactive)	> 100 µM (inactive)	> 64.3 µM (inactive)	> 56.6 µM (inactive)	> 100 µM (inactive)	> 100 µM (inactive)	> 100 µM (inactive)	55.8 µM (inactive)	44.2 µM (inactive)
CC(C)(CO)CNc1nc(N)nc(Cl)c1/C=N/O	71.1 µM (inactive)	62.7 µM (inactive)	29.8 µM (inactive)	41.2 µM (inactive)	41.6 µM (inactive)	43.9 µM (inactive)	49.5 µM (inactive)	22.6 µM (inactive)	23.9 µM (inactive)	22.2 µM (inactive)	30.6 µM (inactive)	17.3 µM (inactive)	30.9 µM (inactive)	48.4 µM (inactive)	24.1 µM (inactive)	30 µM (inactive)	84.5 µM (inactive)	27 µM (inactive)	23 µM (inactive)	23.8 µM (inactive)
CCN1CCC(CNC(=O)c2ccc(N)cc2)N1CC (stereo not given)	> 100 µM (inactive)	> 100 µM (inactive)	> 100 µM (inactive)	> 100 µM (inactive)	> 100 µM (inactive)	> 100 µM (inactive)	> 100 µM (inactive)	> 100 µM (inactive)	> 100 µM (inactive)	> 100 µM (inactive)	> 100 µM (inactive)	> 100 µM (inactive)	> 100 µM (inactive)	> 100 µM (inactive)	> 100 µM (inactive)	> 100 µM (inactive)	> 100 µM (inactive)	> 100 µM (inactive)	> 100 µM (inactive)	> 100 µM (inactive)
COC1=C(Br)C(O)C2(C=C1Br)CC(C(=O)NCCCCNC(=O)C1=NOC3(C=C(Br)C(OC)=C(Br)C3O)C1)=NO2 (stereo not given)	52.1 µM (inactive)	15.8 µM (inactive)	20.6 µM (inactive)	16.7 µM (inactive)	51.2 µM (inactive)	19.9 µM (inactive)	20.4 µM (inactive)	4.73 µM (inactive)	31 µM (inactive)	24.8 µM (inactive)	19.8 µM (inactive)	43.2 µM (inactive)	30.5 µM (inactive)	25.5 µM (inactive)	13.8 µM (inactive)	26.4 µM (inactive)	12.4 µM (inactive)	12.4 µM (inactive)	15.6 µM (inactive)	63.4 µM (inactive)
COc1cc2c(c(OC)c1OC)-c1ccc(SC)c(=O)cc1C(NC=O)CC2 (stereo not given)	< 0.01 µM (active)	< 0.01 µM (active)	< 0.01 µM (active)	< 0.01 µM (active)	0.0393 µM (active)	< 0.01 µM (active)	< 0.01 µM (active)	0.0465 µM (active)	< 0.01 µM (active)	0.0463 µM (active)	< 0.01 µM (active)	0.0188 µM (active)	< 0.01 µM (active)	0.462 µM (active)	< 0.01 µM (active)	< 0.01 µM (active)	< 0.01 µM (active)	< 0.01 µM (active)	< 0.01 µM (active)	0.0183 µM (active)
CN(C)c1cccc2c(S(=O)(=O)NCCN)cccc12 [DANSYL ETHYLENEDIAMINE]	39.5 µM (inactive)	> 100 µM (inactive)	9.91 µM (inactive)	> 100 µM (inactive)	> 100 µM (inactive)	> 100 µM (inactive)	> 100 µM (inactive)	> 100 µM (inactive)	23 µM (inactive)	41.1 µM (inactive)	> 100 µM (inactive)	98.9 µM (inactive)	> 100 µM (inactive)	> 100 µM (inactive)	> 100 µM (inactive)	> 100 µM (inactive)	> 100 µM (inactive)	> 100 µM (inactive)	> 100 µM (inactive)	> 100 µM (inactive)
COCOC1/C=C/CCCC#C[C@H](C)C(=O)CC1 (stereo not given in full)	14.6 µM (inactive)	5.45 µM (inactive)	2.32 µM (inactive)	11.4 µM (inactive)	11.8 µM (inactive)	7 µM (inactive)	8.69 µM (inactive)	19.6 µM (inactive)	12.1 µM (inactive)	8.41 µM (inactive)	16.2 µM (inactive)	14.8 µM (inactive)	19.5 µM (inactive)	15.2 µM (inactive)	3.46 µM (inactive)	8.73 µM (inactive)	4.85 µM (inactive)	15.5 µM (inactive)	6.12 µM (inactive)	11.5 µM (inactive)
COc1cc(C[C@H]2c3cc(OC)c(OC)cc3CCN2C)c(Oc2cc3c(cc2OC)-c2c(OC)c(OC)cc4c2[C@H](C3)N(C)CC4)cc1OC [THALICARPINE]	7.6 µM (inactive)	5.75 µM (inactive)	2.84 µM (inactive)	4.13 µM (inactive)	11.3 µM (inactive)	5.16 µM (inactive)	4.93 µM (inactive)	6.58 µM (inactive)	7.06 µM (inactive)	3.05 µM (inactive)	8.28 µM (inactive)	4.66 µM (inactive)	10.6 µM (inactive)	4.02 µM (inactive)	5.08 µM (inactive)	9.16 µM (inactive)	5.18 µM (inactive)	2.99 µM (inactive)	10.5 µM (inactive)	6.22 µM (inactive)
CCCCc1ccc(Nc2nc(Cl)c3ccn(C4CC(Oc5ccc(C)cc5)C(COc5ccc(C)cc5)O4)c3n2)cc1 (stereo not given)	> 46.5 µM (inactive)	> 46.5 µM (inactive)	> 46.5 µM (inactive)	> 46.5 µM (inactive)	> 46.5 µM (inactive)	> 46.5 µM (inactive)	> 100 µM (inactive)	> 46.5 µM (inactive)	> 46.5 µM (inactive)	> 46.5 µM (inactive)	> 46.5 µM (inactive)	25.6 µM (inactive)	> 100 µM (inactive)	> 100 µM (inactive)	> 10 µM (inactive)	> 31.6 µM (inactive)	> 46.5 µM (inactive)	> 100 µM (inactive)	> 100 µM (inactive)	> 46.5 µM (inactive)
O=c1[nH]nc(Cc2ccccc2)n1C1CCCC1	> 100 µM (inactive)	> 100 µM (inactive)	> 100 µM (inactive)	> 100 µM (inactive)	> 100 µM (inactive)	> 100 µM (inactive)	> 100 µM (inactive)	> 100 µM (inactive)	> 100 µM (inactive)	> 100 µM (inactive)	> 100 µM (inactive)	> 100 µM (inactive)	> 100 µM (inactive)	> 100 µM (inactive)	> 100 µM (inactive)	> 100 µM (inactive)	> 100 µM (inactive)	> 100 µM (inactive)	> 100 µM (inactive)	> 100 µM (inactive)
OC1(c2cccs2)c2cccc(Cl)c2C(O)(c2cccs2)c2c(Cl)cccc21 (stereo not given)	> 100 µM (inactive)	> 100 µM (inactive)	> 100 µM (inactive)	> 100 µM (inactive)	63.5 µM (inactive)	> 100 µM (inactive)	99.3 µM (inactive)	> 100 µM (inactive)	> 100 µM (inactive)	> 100 µM (inactive)	37 µM (inactive)	> 100 µM (inactive)	57.9 µM (inactive)	> 100 µM (inactive)	36.6 µM (inactive)	> 100 µM (inactive)	> 100 µM (inactive)	9.84 µM (inactive)	> 100 µM (inactive)	> 100 µM (inactive)
